This note sets out measurements from ChEMBL document CHEMBL1142746, “Triaryl bis-sulfones as cannabinoid-2 receptor ligands: SAR studies” (Bioorg Med Chem Lett, 2005).

One assay has as its target Cannabinoid receptor 2 (Homo sapiens, UniProt P34972). The assay is described as follows: Inhibition constant against Cannabinoid receptor 2.
For assay [1], the target named is Cannabinoid receptor (Homo sapiens) (UniProt P34972+P21554). In words: Ratio of inhibition against Cannabinoid receptor 1 and Cannabinoid receptor 2. It counts as protein assay.
Sequence of Cannabinoid receptor (Homo sapiens) (P21554 whole entry, looked up): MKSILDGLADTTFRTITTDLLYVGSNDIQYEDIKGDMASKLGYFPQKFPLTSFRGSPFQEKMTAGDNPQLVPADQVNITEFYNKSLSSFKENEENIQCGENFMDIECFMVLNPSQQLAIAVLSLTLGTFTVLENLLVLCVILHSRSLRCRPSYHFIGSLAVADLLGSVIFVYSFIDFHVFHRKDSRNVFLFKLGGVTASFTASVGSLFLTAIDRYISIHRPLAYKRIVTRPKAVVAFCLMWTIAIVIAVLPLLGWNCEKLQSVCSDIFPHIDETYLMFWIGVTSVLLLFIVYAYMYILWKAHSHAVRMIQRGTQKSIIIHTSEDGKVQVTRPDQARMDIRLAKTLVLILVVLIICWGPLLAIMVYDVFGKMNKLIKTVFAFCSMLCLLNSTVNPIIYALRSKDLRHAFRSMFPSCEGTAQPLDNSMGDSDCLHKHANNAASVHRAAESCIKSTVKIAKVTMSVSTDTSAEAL
Sequence of Cannabinoid receptor (Homo sapiens) (P34972 whole entry, looked up): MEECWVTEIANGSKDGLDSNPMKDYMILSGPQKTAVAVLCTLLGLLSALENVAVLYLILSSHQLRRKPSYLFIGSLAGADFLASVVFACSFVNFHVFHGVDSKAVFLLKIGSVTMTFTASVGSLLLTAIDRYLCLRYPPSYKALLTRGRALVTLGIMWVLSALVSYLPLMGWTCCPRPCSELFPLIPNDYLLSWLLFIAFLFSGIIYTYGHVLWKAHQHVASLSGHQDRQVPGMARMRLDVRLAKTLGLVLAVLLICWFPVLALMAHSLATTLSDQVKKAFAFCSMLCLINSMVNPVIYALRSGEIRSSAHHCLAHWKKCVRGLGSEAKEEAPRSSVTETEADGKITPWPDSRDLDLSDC

Sequence of Cannabinoid receptor 2 (P34972 whole entry): as the sequence (P34972 whole entry, looked up) above

Broadly, the Ki is a measure of affinity in units of concentration, obtained from inhibition or displacement. A low value points to tighter binding. On Cannabinoid receptor 2, `C[C@H](NS(C)(=O)=O)c1ccc(Cc2ccc(C(F)(F)F)cc2S(=O)(=O)c2cccc(F)c2)cc1` yielded an inhibitory constant (Ki) of 3.5 nM. In addition, the Selectivity in assay [1] was found to be 438.
For `COc1ccc(S(=O)(=O)c2cc(OC)ccc2S(=O)(=O)c2ccc(C(C)(C)NS(C)(=O)=O)cc2)cc1`, in that order: 6 nM and 282.
`C[C@H](NS(C)(=O)=O)c1ccc(S(=O)(=O)c2ccc(Cl)cc2S(=O)(=O)c2ccccc2Cl)cc1` came in with a Ki at Cannabinoid receptor 2 of 6 nM. For the same molecule, the Selectivity in assay [1] is 1780.
In turn, `C=C(c1ccccc1F)c1cc(Cl)ccc1S(=O)(=O)c1ccc([C@H](C)NS(C)(=O)=O)cc1` came in with a Ki at Cannabinoid receptor 2 of 247 nM. Besides, in assay [1], the Selectivity came out at 17.
For `COc1ccc(S(=O)(=O)c2cc(OC)ccc2S(=O)(=O)c2ccc([C@@H](C)NS(C)(=O)=O)cc2)cc1`, in that order: 30 nM and 105.
Regarding `C[C@H](NS(C)(=O)=O)c1ccc(Cc2ccc(C(F)(F)F)cc2S(=O)(=O)c2ccccc2F)cc1`, on Cannabinoid receptor 2, the Ki is 1 nM. For the same molecule, in assay [1], the Selectivity was found to be 674.
The corresponding values for `C[C@H](NS(C)(=O)=O)c1ccc(S(=O)(=O)c2ccc(Cl)cc2C(C)(O)c2ccccc2F)cc1` (stereo not given in full) are 77 nM and 111.
For `C[C@H](NS(C)(=O)=O)c1ccc(S(=O)(=O)c2ccc(Cl)cc2S(=O)(=O)c2ccccc2OC(F)(F)F)cc1`, in that order: 128 nM and 134.
For `C[C@H](NS(C)(=O)=O)c1ccc(S(=O)(=O)c2ccc(Cl)cc2Nc2ccc(Cl)cc2)cc1`, in that order: 278 nM and 5.
In the case of `COc1ccc(S(=O)(=O)c2cc(OC)ccc2S(=O)(=O)c2ccc(CNS(C)(=O)=O)cc2)cc1`, the affinity on Cannabinoid receptor 2, expressed as Ki, was 1.3 nM. Moreover, the Selectivity in assay [1] was 2170.
On to `C[C@H](NS(C)(=O)=O)c1ccc(S(=O)(=O)c2ccccc2S(=O)(=O)c2ccc(Cl)cc2)cc1`, for which affinity on Cannabinoid receptor 2 was put at a Ki of 58 nM. Further, the Selectivity in assay [1] worked out at 127.
The corresponding values for `C[C@H](NS(C)(=O)=O)c1ccc(S(=O)(=O)c2ccc(Cl)cc2S(=O)(=O)c2ccc(Cl)cc2)cc1` are 10 nM and 687.
In the case of `C[C@H](NS(C)(=O)=O)c1ccc(Cc2ccc(C(F)(F)F)cc2S(=O)(=O)c2c(F)cccc2F)cc1`, the Ki at Cannabinoid receptor 2 was 1.8 nM. Moreover, the Selectivity in assay [1] worked out at 584.
`CC(NS(C)(=O)=O)c1ccc(C(=O)c2ccc(Cl)cc2S(=O)(=O)c2ccc(Cl)cc2)cc1` (stereo not given) registered a Ki at Cannabinoid receptor 2 of 410 nM. Moreover, in assay [1], the Selectivity was 16.
For `C[C@H](NS(C)(=O)=O)c1ccc(S(=O)(=O)c2ccc(Cl)cc2Cc2ccc(Cl)cc2)cc1`, the Ki on Cannabinoid receptor 2 is 164 nM. The Selectivity in assay [1] was 11.
At Cannabinoid receptor 2, `C[C@H](NS(C)(=O)=O)c1ccc(Cc2ccc(OC(F)(F)F)cc2S(=O)(=O)c2ccccc2OC(F)(F)F)cc1` came in with a Ki of 16 nM. Further, the Selectivity in assay [1] was 60.
Turning to `C[C@H](NS(C)(=O)=O)c1ccc(S(=O)(=O)c2ccc(C(F)(F)F)cc2S(=O)(=O)c2ccc(Cl)cc2)cc1`, the Ki on Cannabinoid receptor 2 was 8 nM. For the same molecule, in assay [1], the Selectivity was 558.
As for `C[C@H](NS(C)(=O)=O)c1ccc(S(=O)(=O)c2ccc(Cl)cc2C(=O)c2ccc(Cl)cc2)cc1`, the Ki at Cannabinoid receptor 2 turned out to be 192 nM. The Selectivity in assay [1] came out at 284.
The corresponding values for `C[C@H](NS(C)(=O)=O)c1ccc(S(=O)(=O)c2ccc(Cl)cc2S(=O)(=O)c2cccc(Cl)c2)cc1` are 23 nM and 238.
The molecule `C[C@H](NS(C)(=O)=O)c1ccc(S(=O)(=O)c2ccc(C(F)(F)F)cc2S(=O)(=O)c2ccccc2F)cc1` came in with a Ki at Cannabinoid receptor 2 of 0.9 nM. The Selectivity in assay [1] came out at 3550.
For `C[C@H](NS(C)(=O)=O)c1ccc(S(=O)(=O)c2ccc(O)cc2S(=O)(=O)c2ccc(Cl)cc2)cc1`, in that order: 13 nM and 2320.
Regarding `C[C@H](NS(C)(=O)=O)c1ccc(Cc2ccc(Cl)cc2S(=O)(=O)c2ccc(Cl)cc2)cc1`, at Cannabinoid receptor 2, affinity was put at a Ki of 6.7 nM. Besides, the Selectivity in assay [1] worked out at 188.
The corresponding values for `COc1ccc(S(=O)(=O)c2ccc([C@H](C)NS(C)(=O)=O)cc2)c(S(=O)(=O)c2ccc(Cl)cc2)c1` are 0.9 nM and 1150.
On Cannabinoid receptor 2, `C[C@H](NS(C)(=O)=O)c1ccc(S(=O)(=O)c2ccc(Cl)cc2Oc2ccc(Cl)cc2)cc1` came in with a Ki of 983 nM. Moreover, the Selectivity in assay [1] is 3.
The corresponding values for `C[C@H](NS(C)(=O)=O)c1ccc(S(=O)(=O)c2ccc(OC3CCCC3)cc2S(=O)(=O)c2ccc(Cl)cc2)cc1` are 232 nM and 11.
`CC(NS(C)(=O)=O)c1ccc(C(=O)c2ccc(OC(F)(F)F)cc2S(=O)(=O)c2ccccc2F)cc1` (stereo not given) gave a Ki at Cannabinoid receptor 2 of 179 nM. Besides, the Selectivity in assay [1] turned out to be 28.
Turning to `C[C@H](NS(C)(=O)=O)c1ccc(S(=O)(=O)c2ccc(Cl)cc2S(=O)(=O)c2ccccc2F)cc1`, at Cannabinoid receptor 2, the affinity, expressed as Ki, was 1 nM. Moreover, in assay [1], the Selectivity was 4390.
On to `C[C@H](NS(C)(=O)=O)c1ccc(Cc2ccc(OC(F)(F)F)cc2S(=O)(=O)c2cccc(C(F)(F)F)c2)cc1`, for which the affinity on Cannabinoid receptor 2, expressed as Ki, was 35 nM. Besides, in assay [1], the Selectivity was 27.
Regarding `COc1ccc(S(=O)(=O)c2ccc([C@H](C)NS(C)(=O)=O)cc2)c(S(=O)(=O)c2ccccc2)c1`, the affinity at Cannabinoid receptor 2 corresponds to a Ki of 0.6 nM. The Selectivity in assay [1] was found to be 2480.
For `COc1ccc(S(=O)(=O)c2cc(OC)ccc2S(=O)(=O)c2ccc([C@H](C)NS(C)(=O)=O)cc2)cc1`, in that order: 0.4 nM and 2260.
The corresponding values for `C[C@H](NS(C)(=O)=O)c1ccc(S(=O)(=O)c2ccc(Cl)cc2C(C)(O)c2ccc(Cl)cc2)cc1` (stereo not given in full) are 230 nM and 25.
The corresponding values for `COc1ccc(S(=O)(=O)c2cc(OC)ccc2C(=O)c2ccc([C@H](C)NS(C)(=O)=O)cc2)cc1` are 44 nM and 108.
Regarding `C[C@H](NS(C)(=O)=O)c1ccc(S(=O)(=O)c2ccc(Cl)cc2S(=O)(=O)c2ccccc2)cc1`, the affinity at Cannabinoid receptor 2 corresponds to a Ki of 2 nM. Moreover, the Selectivity in assay [1] was determined as 1940.
The molecule `C=C(c1ccc([C@H](C)NS(C)(=O)=O)cc1)c1ccc(OC(F)(F)F)cc1S(=O)(=O)c1ccccc1F` had a Ki at Cannabinoid receptor 2 of 86 nM. For the same molecule, the Selectivity in assay [1] came to 19.
For `CCC(c1ccc([C@H](C)NS(C)(=O)=O)cc1)c1ccc(Cl)cc1S(=O)(=O)c1ccc(Cl)cc1` (stereo not given in full), in that order: 76 nM and 48.
`COc1ccc(S(=O)(=O)c2cc(OC)ccc2Cc2ccc([C@H](C)NS(C)(=O)=O)cc2)cc1`: on Cannabinoid receptor 2, the Ki came out at 0.6 nM. For the same molecule, the Selectivity in assay [1] was 1300.
The corresponding values for `C[C@H](NS(C)(=O)=O)c1ccc(Cc2ccc(OC(F)(F)F)cc2S(=O)(=O)c2ccccc2F)cc1` are 0.4 nM and 1180.
For `CO/N=C(\c1ccc([C@H](C)NS(C)(=O)=O)cc1)c1ccc(Cl)cc1S(=O)(=O)c1ccc(Cl)cc1`, in that order: 406 nM and 5.
For the molecule `C[C@H](NS(C)(=O)=O)c1ccc(S(=O)(=O)c2ccccc2S(=O)(=O)c2ccccc2F)cc1`, the inhibition constant (Ki) on Cannabinoid receptor 2 came out at 9 nM. In addition, the Selectivity in assay [1] is 1450.
For `Cc1ccc(S(=O)(=O)c2ccc([C@H](C)NS(C)(=O)=O)cc2)c(S(=O)(=O)c2ccccc2F)c1`, in that order: 0.5 nM and 1740.
